According to publication PMC4131897 (Biochemistry, 2014):
Residue numbers refer to the chain shown, from its start.

Key:
Format in all cases: binding
[1] = molecular target: T1, BjPutA (proline utilization A) (Bradyrhizobium diazoefficiens, UniProt Q89E26, D779W); assay: intrinsic tryptophan fluorescence quenching
T1 sequence (Q89E26 1-999 D779W): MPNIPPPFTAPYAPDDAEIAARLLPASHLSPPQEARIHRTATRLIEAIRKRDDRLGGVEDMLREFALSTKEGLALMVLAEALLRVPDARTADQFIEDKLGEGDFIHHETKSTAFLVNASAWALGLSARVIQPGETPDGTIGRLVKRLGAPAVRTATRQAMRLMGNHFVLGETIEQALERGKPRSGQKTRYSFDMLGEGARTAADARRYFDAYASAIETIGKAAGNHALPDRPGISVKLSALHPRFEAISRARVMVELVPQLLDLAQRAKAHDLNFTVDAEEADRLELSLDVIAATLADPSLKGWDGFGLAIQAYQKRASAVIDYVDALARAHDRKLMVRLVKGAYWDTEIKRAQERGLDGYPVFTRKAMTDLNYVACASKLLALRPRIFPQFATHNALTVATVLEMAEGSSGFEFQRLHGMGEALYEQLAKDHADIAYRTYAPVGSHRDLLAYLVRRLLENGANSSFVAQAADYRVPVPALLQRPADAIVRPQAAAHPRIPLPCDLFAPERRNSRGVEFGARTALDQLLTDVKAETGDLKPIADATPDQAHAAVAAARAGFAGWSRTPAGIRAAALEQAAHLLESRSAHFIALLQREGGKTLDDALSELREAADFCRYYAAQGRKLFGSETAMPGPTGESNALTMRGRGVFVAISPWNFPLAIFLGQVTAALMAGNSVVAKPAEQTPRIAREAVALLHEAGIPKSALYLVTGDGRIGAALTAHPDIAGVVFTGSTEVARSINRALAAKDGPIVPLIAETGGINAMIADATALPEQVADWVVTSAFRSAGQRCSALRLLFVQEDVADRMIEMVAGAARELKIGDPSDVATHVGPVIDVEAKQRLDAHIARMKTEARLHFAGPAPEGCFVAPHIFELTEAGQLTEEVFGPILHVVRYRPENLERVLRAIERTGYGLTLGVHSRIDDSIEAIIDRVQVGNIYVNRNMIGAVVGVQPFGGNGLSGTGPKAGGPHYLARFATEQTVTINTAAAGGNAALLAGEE

[2] = molecular target: T2, BjPutA (proline utilization A) (Bradyrhizobium diazoefficiens, UniProt Q89E26); assay: intrinsic tryptophan fluorescence quenching, single-site fit
T2 sequence (Q89E26 1-999): T1 sequence (Q89E26 1-999 D779W) with W779D

[3] = molecular target: T3, BjPutA (proline utilization A) (Bradyrhizobium diazoefficiens, UniProt Q89E26, D778Y); assay: intrinsic tryptophan fluorescence quenching
T3 sequence (Q89E26 1-999 D778Y): T1 sequence (Q89E26 1-999 D779W) with D778Y, W779D

`NC(=O)c1ccc[n+]([C@@H]2O[C@H](COP(=O)(O)OP(=O)(O)OC[C@H]3O[C@@H](n4cnc5c(N)ncnc54)[C@H](O)[C@@H]3O)[C@@H](O)[C@H]2O)c1` [NAD^+] gave a Kd [1] of 780 ± 50 nM, a Kd [2] of 600 ± 40 nM and a Kd [3] of 670 ± 40 nM.
